{"source": "paper PMC6533141", "about": "(Chemical biology & drug design, 2019)", "key": {"HAT1": {"molecular_target": "T1, HAT1 (Homo sapiens, UniProt O14929)", "T1 sequence (O14929 20-341)": "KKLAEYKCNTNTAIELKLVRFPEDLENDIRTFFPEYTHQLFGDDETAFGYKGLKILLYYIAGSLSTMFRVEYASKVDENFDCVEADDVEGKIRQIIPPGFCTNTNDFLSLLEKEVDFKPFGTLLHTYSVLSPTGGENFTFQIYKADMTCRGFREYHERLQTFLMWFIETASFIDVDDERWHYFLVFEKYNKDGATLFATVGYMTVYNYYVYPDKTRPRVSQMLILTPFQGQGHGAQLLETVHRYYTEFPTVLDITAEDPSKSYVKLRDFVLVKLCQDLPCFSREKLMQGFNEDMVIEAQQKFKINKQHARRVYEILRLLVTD", "assay": "Scintillation proximity assay", "assay_type": "biochemical", "conditions": "SPA, 40 nM HAT1, […] H4-20 BTN, 1 µM [3H]AcCoA, 30°C, 20 min; for Ki: calculated from Kiapp (Equation 2); for IC50: calculated from Kiapp (Equation 3)"}, "p300": {"tested_on": "p300", "conditions": "cited from earlier work"}}}
{"smiles": "CC(C)(COP(=O)(O)OP(=O)(O)OC[C@H]1O[C@@H](n2cnc3c(N)ncnc32)[C@H](O)[C@@H]1OP(=O)(O)O)[C@@H](O)C(=O)NCCC(=O)NCCS", "note": "[CoA]", "values": [{"measurement": "Ki", "setting": "HAT1", "value": 14.6, "unit": "µM"}, {"measurement": "IC50", "setting": "HAT1", "value": 41.5, "unit": "µM"}]}
{"smiles": "CC(=O)N[C@@H](CCCCNC(=O)CSCCNC(=O)CCNC(=O)[C@H](O)C(C)(C)COP(=O)(O)OP(=O)(O)OC[C@H]1O[C@@H](n2cnc3c(N)ncnc32)[C@H](O)[C@@H]1OP(=O)(O)O)C(N)=O", "note": "[Lys-CoA, Ac-Lys(CoA)-NH2]", "values": [{"measurement": "IC50", "setting": "p300", "value": 500, "unit": "nM"}, {"measurement": "Ki", "setting": "p300; previous study", "value": 19, "unit": "nM"}, {"measurement": "Ki", "setting": "HAT1", "value": 26.2, "unit": "µM"}, {"measurement": "IC50", "setting": "HAT1", "value": 74.9, "unit": "µM"}]}
